Data as given in PMC5532363, “Synergistic blending of high-valued heterocycles inhibits growth of Plasmodium falciparum in culture and P. berghei infection in mouse model” (Scientific Reports, 2017).

Key:
P. falciparum 3D7 = assay: Fixed-ratio isobologram drug interaction assay with CQ/DHA, 3D7; assay type: cell-based, Plasmodium falciparum; settings: Pf3D7
Method: (§1) A modified fixed-ratio isobologram method was used to assess interaction between CQ/DHA and Pht analogues. Briefly, a total of 5 solutions containing fixed-ratio mixtures of Pht derivatives with either CQ or DHA were prepared in the following ratios: 1:1, 2:1, 3:2, 2:3, and 1:4. The starting concentrations for ten 2 fold-serial dilutions across the microtiter plate were assigned so that the IC50 of each drug would be in the 5th serial dilution of the plate. Each drug was tested alone and at fixed ratios of its IC50. The assessment of drug interaction was based on the calculation of the fractional inhibitory concentration (FIC) of two drugs in the […]. FIC was calculated for each association by dividing the IC50 of the drug in the combination by the IC50 of the drug alone.

P. falciparum W2 = assay: Fixed-ratio isobologram drug interaction assay with CQ/DHA, W2; assay type: cell-based, Plasmodium falciparum; settings: PfW2
Method: as §1

CQ resistant PfW2 strain = assay: SYBR Green I growth inhibition assay, P. falciparum W2 culture; assay type: cell-based; settings: Plasmodium falciparum
Excerpt: Antimalarial activity of all the listed Pht analogues was initially assessed on asynchronous cultures of P. falciparum 3D7 (Pf3D7) clone using the SYBR Green assay. […] The mean IC50 values are based on three separate experiments (Table 1).
The laboratory-adapted P. falciparum strains 3D7 (Africa; CQ sensitive) and W2 (Africa; CQ resistant), were acquired from Malaria Research and Reference Reagent Resource Center (MR4) (Manassas, VA, USA) and maintained with type O +ve erythrocytes suspended in continuous complete culture medium as described. Complete culture media consisted of 10.43 g/litre of RPMI 1640-HEPES supplemented with 10% (vol/vol) human AB serum, 92.6 mg/litre L-glutamine, 50 mg/liter hypoxanthine, 2 g/litre sodium bicarbonate (Sigma-Aldrich, St. Louis, MO). Incubation of cultures was at 37 °C and maintained in a low oxygen atmosphere (5% O2, 5% CO2, 90% N). The levels of parasitemia in the cultures were maintained at between 2 and 10%, with 5% hematocrit. Media was changed after every 24 hours and parasitemia monitored every 48 hours. Synchronous cultures were prepared by sorbitol lysis. Stock solutions of the Pht, Pht analogues, and DHA were prepared in absolute dimethyl sulfoxide (DMSO) while CQ was prepared in distilled water. The prepared drug stock solutions were used immediately or stored at −80 °C for not longer than one month before use. Stock solutions were further diluted in serum free RPMI 1640 media (stock solution solvent final conc. 0.05%) before performing a 2-fold serial dilution to achieve dose ranges of 0.2 µM to 100 µM (Pht and derivatives), 7.8 to 2,000 nM (CQ) and 0.17 to 87.5 nM (DHA). 25 μL of the drug diluents were aliquoted into 96 well plates and used immediately. Alternatively, the stock solutions were diluted in distilled water, 2-fold serial dilution performed on a 96 well plate and allowed to air dry in a laminar flow hood after which dried plates were stored at 4 °C until use. SYBR Green I assay technique with additional modification was used for drug susceptibility testing of the parasites. Parasite cultures of >1% parasitemia were diluted to 1% parasitemia and 2% hematocrit and 200 μL were transferred onto drug pre-dosed plates and incubated at 37 °C for 90 hours, [40]. […] Relative fluorescence units (RFU) were read using the Perkin Elmer Wallac 1420 fluorescence plate reader, with excitation and emission wavelengths of 485 nm and 535 nm respectively. The readouts values were aligned with corresponding drug doses and analysis performed by Graph-pad Prism software. The drug concentrations (x value) were transformed using X = Log[X] and plotted against the counts (y values) and the data analysed by non-linear regression (sigmoid dose-response/variable slope equation) to yield the IC50.

SMILES	interaction when combined with CQ and DHA (P. falciparum 3D7)	interaction when combined with CQ and DHA (P. falciparum W2)	IC50 (CQ resistant PfW2 strain) [nM]
CC(C)C[C@H](c1nc2ccccc2n1Cc1c[nH]nn1)N1C(=O)c2ccccc2C1=O [Compound 6u]	synergistic activity	synergistic activity	900
CC[C@@H](C)[C@H](c1nc2ccccc2n1Cc1cn(-c2ccc(F)cc2)nn1)N1C(=O)c2ccccc2C1=O [Compound 6h]	synergistic activity	synergistic activity	1300
